Results as given in patent US20080058579A1, “Compositions and methods for treating disease utilizing a combination of radioactive therapy and cell-cycle inhibitors” (Angiotech International AG, priority 1999, published 2008).

Tested on: PC3 human prostate cells
Assay: In vivo treatment model using a locally administered cell cycle inhibitor with local radiation
Settings: FIG. 16; for percent reduction in tumor volume: one week after treatment
From the text: This animal model is used to determine the effectiveness of a locally administered cell cycle inhibitor (e.g., paclitaxel) in conjunction with a locally administered radiation source in treating a proliferative disease, specifically, a cancer. The relative change in tumor volume measured in tumor bearing mice receiving various treatments will be used to gauge the therapy's effectiveness relative to use of local radiation alone or locally administered cell cycle inhibitor alone.
The methods used are as follows. Cancer cells (specifically PC3) human prostate cells, American Type Culture Collection, Rockville Md.) are maintained in DMEM solution with 5% heat-inactivated fetal calf serum. Male SCID mice are inoculated with approximately 1×10^6 cells subcutaneously in the flank region. The tumor injection sites are followed by visual inspection or palpation. Tumor volume is measured using calipers. The tumor is allowed to grow until it reaches a treatable volume of 100-200 mm^3.
At this time the mice are treated as follows. Approximately six brachytherapy seeds are implanted adjacent to the tumor to deliver a local radiation dose of 25-40 Gy (I^125 radiation source). A polymeric paste (100 μl) containing 50 μg paclitaxel (0.5% w/w) is injected subcutaneously adjacent to or into the tumor. The following treatment groups were studied (10 mice per group). 1) Control paste without paclitaxel and non-radioactive (cold) seeds. 2) Control paste and radioactive seeds. 3) 0.5% w/w paclitaxel loaded paste and cold seeds. 4) 0.5% w/w paclitaxel loaded paste and radioactive seeds.
Tumor size is measured at twice-weekly intervals using calipers. An investigator blinded to the experimental groups will conduct the measurements. Caliper measured dimensions may be taken in two (length (L), width (W)) or three dimensions (Height (H)). […]
The animal data are analyzed as follows. The means and standard deviations of the tumor measurements are determined and plotted from the initial day of caliper measurement until the final measurement. […]

Compound: CC(=O)O[C@H]1C(=O)[C@@]2(C)[C@H]([C@H](OC(=O)c3ccccc3)[C@]3(O)C[C@H](OC(=O)[C@H](O)[C@@H](NC(=O)c4ccccc4)c4ccccc4)C(C)=C1C3(C)C)[C@]1(OC(C)=O)CO[C@@H]1C[C@@H]2O [paclitaxel]
- tumor volume (one week after treatment with locally administered radiation (I-125) and locally administered paclitaxel, n=9 per treatment): decreased
- percent reduction in tumor volume (only one of the two treatments (paclitaxel alone)): lesser reduction
- percent reduction in tumor volume (paclitaxel paste (0.5% w/w) and I-125 seeds given in combination): greatest
